The term IC50 denotes the point on the concentration scale where inhibition reaches its midpoint. Broadly, the viability, T/C is the ratio of treated to control.

In this test the test system is 156681-154-R-J1-PDC tumor spheroids, viability % test/control. The test is described as follows: Anticancer human tumor 156681-154-R-J1-PDC patient-derived melanoma cell line growth inhibition [TAK]. Particulars: spheroids with HUVEC and MSC; for viability, T/C: stronger effect = lower value. The method in brief: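 Tumor cells were grown as spheroids with HUVEC and hMSC (60:25:15) and treated with targeted agents combined with TAK-243 or ipatasertib. Drugs were tested in half-log steps down from near the clinical Cmax, or from 10 microM where Cmax was unknown.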

The mark [1] stands for this setting: curve of first compound, second compound 0.3 µM.
Where [2] appears, read: curve of first compound, second compound 0.949 µM.
Setting [3] is: curve of first compound, second compound 3 µM.
Where [4] appears, read: curve of first compound, second compound 9.49 µM.
[5] abbreviates: curve of first compound, second compound 30 µM.
Where [6] appears, read: second compound 0.3 µM, first compound 0.000316 µM.
[7] abbreviates: second compound 0.3 µM, first compound 0.001 µM.
Setting [8] is: second compound 0.3 µM, first compound 0.00316 µM.
[9] abbreviates: second compound 0.3 µM, first compound 0.01 µM.
Where [10] appears, read: second compound 0.949 µM, first compound 0.000316 µM.
Where [11] appears, read: second compound 0.949 µM, first compound 0.001 µM.
Setting [12] is: second compound 0.949 µM, first compound 0.00316 µM.
Where [13] appears, read: second compound 0.949 µM, first compound 0.01 µM.
The mark [14] stands for this setting: second compound 3 µM, first compound 0.000316 µM.
Where [15] appears, read: second compound 3 µM, first compound 0.001 µM.
Setting [16] is: second compound 3 µM, first compound 0.00316 µM.
The mark [17] stands for this setting: second compound 3 µM, first compound 0.01 µM.
Where [18] appears, read: second compound 9.49 µM, first compound 0.000316 µM.
Where [19] appears, read: second compound 9.49 µM, first compound 0.001 µM.
The mark [20] stands for this setting: second compound 9.49 µM, first compound 0.00316 µM.
[21] abbreviates: second compound 9.49 µM, first compound 0.01 µM.
The mark [22] stands for this setting: second compound 30 µM, first compound 0.000316 µM.
Setting [23] is: second compound 30 µM, first compound 0.001 µM.
Setting [24] is: second compound 30 µM, first compound 0.00316 µM.
Where [25] appears, read: second compound 30 µM, first compound 0.01 µM.

Each structure is given as a SMILES string. Several values for one entry are separate records, joined by “and”; a condition that tells them apart may be missing. Equal entries are not always repeated.
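Note: spheroids exposed to compounds for 7 days before the endpoint.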

As to `CC(C)n1nc(-c2ccc3oc(N)nc3c2)c2c(N)ncnc21` + CC(C)NCC(C(=O)N1CCN(c2ncnc3c2C(C)CC3O)CC1)c1ccc(Cl)cc1, the IC50 runs as follows: under setting [1], 26 nM; under setting [2], 12.5 nM; under setting [3], 2.4 nM; under setting [4], < 0.316 nM; under setting [5], < 0.316 nM. The viability, T/C under setting [6] is 94.5%; the viability, T/C under setting [7] is 91.8%; the viability, T/C under setting [8] is 84.1%; the viability, T/C under setting [9] was 69.4%; the viability, T/C (second compound 0.3 µM, first compound 0.0316 µM) is 45.9%; the viability, T/C (second compound 0.3 µM, first compound 0.1 µM) was 25.2%. Also, the viability, T/C is 83.4% under setting [10]; 85.4% under setting [11]; 63.8% under setting [12]; 58.6% under setting [13]; 32.1% (second compound 0.949 µM, first compound 0.0316 µM); 20% (second compound 0.949 µM, first compound 0.1 µM). For the same molecule, the viability, T/C runs as follows: under setting [14], 65.4%; under setting [15], 57.3%; under setting [16], 46.2%; under setting [17], 38.3%; (second compound 3 µM, first compound 0.0316 µM) 19.7%; (second compound 3 µM, first compound 0.1 µM) 11%. Besides, the viability, T/C under setting [18] was 39.9%; the viability, T/C under setting [19] is 33.4%; the viability, T/C under setting [20] is 23.3%; the viability, T/C under setting [21] is 16.3%; the viability, T/C (second compound 9.49 µM, first compound 0.0316 µM) was 11%; the viability, T/C (second compound 9.49 µM, first compound 0.1 µM) is 4.26%. The viability, T/C was 15.5% under setting [22]; 14.4% under setting [23]; 12.3% under setting [24]; 7.31% under setting [25]; 3.39% (second compound 30 µM, first compound 0.0316 µM); 1.21% (second compound 30 µM, first compound 0.1 µM).
`CC(C)(C)c1nc(-c2cccc(NS(=O)(=O)c3c(F)cccc3F)c2F)c(-c2ccnc(N)n2)s1`: the viability, T/C is 106% and 91.4% (compound 0.0316 µM); 95.8% and 92.3% (compound 0.1 µM); 41.5% and 37.8% (compound 0.316 µM); 17.2% and 17.8% (compound 1 µM); 14.4% and 14.5% (compound 3.16 µM); 18% (compound 10 µM). Also, the 50% inhibitory concentration (IC50) (curve of compound) is 264 nM and 243 nM.
As to `Cn1cnc2c(F)c(Nc3ccc(Br)cc3Cl)c(C(=O)NOCCO)cc21`, the viability, T/C (compound 0.00949 µM) is 95.4% and 99.5%; the viability, T/C (compound 0.03 µM) was 92.4% and 89.7%; the viability, T/C (compound 0.0949 µM) is 97.8% and 89.7%; the viability, T/C (compound 0.3 µM) was 93.4% and 95.4%; the viability, T/C (compound 0.949 µM) is 41.3% and 32.8%; the viability, T/C (compound 3 µM) was 13% and 12.3%. For the same molecule, the concentration for half-maximal inhibition (IC50) (curve of compound) was 782 nM and 685 nM.
Consider `CC(C)CC(NC(=O)C(Cc1ccccc1)NC(=O)c1cnccn1)B(O)O` (centres undefined) + CC(C)NCC(C(=O)N1CCN(c2ncnc3c2C(C)CC3O)CC1)c1ccc(Cl)cc1, for which the IC50 under setting [1] amounted to 2.09 nM; the half-inhibitory concentration (IC50) under setting [2] amounted to 1.76 nM; the half-maximal inhibitory concentration (IC50) under setting [3] came to 1.44 nM; the half-inhibitory concentration (IC50) under setting [4] is < 0.0316 nM; the IC50 under setting [5] was < 0.0316 nM. Besides, the viability, T/C (second compound 0.3 µM, first compound 31.6 pM) is 98.5%; the viability, T/C (second compound 0.3 µM, first compound 0.0001 µM) was 97%; the viability, T/C under setting [6] was 91.9%; the viability, T/C under setting [7] was 97.3%; the viability, T/C under setting [8] is 23.9%; the viability, T/C under setting [9] is 0.32%. For the same molecule, the viability, T/C (second compound 0.949 µM, first compound 31.6 pM) is 85.2%; the viability, T/C (second compound 0.949 µM, first compound 0.0001 µM) is 87.4%; the viability, T/C under setting [10] is 91%; the viability, T/C under setting [11] was 90.1%; the viability, T/C under setting [12] was 9.77%; the viability, T/C under setting [13] is 0.19%. Besides, the viability, T/C (second compound 3 µM, first compound 31.6 pM) was 63.9%; the viability, T/C (second compound 3 µM, first compound 0.0001 µM) is 67.6%; the viability, T/C under setting [14] was 66%; the viability, T/C under setting [15] is 66.7%; the viability, T/C under setting [16] is 15.7%; the viability, T/C under setting [17] is 0.22%. Further, the viability, T/C runs as follows: (second compound 9.49 µM, first compound 31.6 pM) 40.6%; (second compound 9.49 µM, first compound 0.0001 µM) 39%; under setting [18], 37.8%; under setting [19], 37.6%; under setting [20], 7.12%; under setting [21], 0.21%. Also, the viability, T/C is, setting by setting: (second compound 30 µM, first compound 31.6 pM) 17.8%; (second compound 30 µM, first compound 0.0001 µM) 18.6%; under setting [22], 16.9%; under setting [23], 17.3%; under setting [24], 1.86%; under setting [25], 0.31%.

(Values after PubChem BioAssay AID2060363 (Molecular Pharmacology Branch, DTP, NCI, 2025).)
